Laboratory results from ChEMBL document CHEMBL6109132, “Potent and Selective Human Constitutive Androstane Receptor Activator DL5055 Facilitates Cyclophosphamide-Based Chemotherapies” (J Med Chem, 2025).

target: T1, Nuclear receptor subfamily 1 group I member 3 (Homo sapiens, UniProt Q14994); test: Agonist activity at human CAR expressed in human HepG2 cells co-expressing CYP2B6 incubated for 23 hrs by Luciferase reporter gene assay; type: cell-based; details: not given
T1 sequence (Q14994 whole entry): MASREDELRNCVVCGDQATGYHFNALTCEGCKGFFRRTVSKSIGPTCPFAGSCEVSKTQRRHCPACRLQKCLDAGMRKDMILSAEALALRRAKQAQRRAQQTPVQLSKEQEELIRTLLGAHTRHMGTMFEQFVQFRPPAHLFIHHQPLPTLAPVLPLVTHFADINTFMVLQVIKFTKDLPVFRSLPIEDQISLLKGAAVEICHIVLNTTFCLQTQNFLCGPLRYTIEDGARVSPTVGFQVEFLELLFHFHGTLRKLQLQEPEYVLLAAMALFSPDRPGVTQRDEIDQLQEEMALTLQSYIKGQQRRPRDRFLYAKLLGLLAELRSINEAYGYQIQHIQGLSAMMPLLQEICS

| SMILES | EC50 [nM] |
| --- | --- |
| O=C(NCC1Cc2ccccc2C1)c1c(-c2ccc(F)cc2F)nc2occn12 | 1900 |
| c1ccc2c(c1)CC(NCc1c(-c3ccc4ccccc4c3)nc3occn13)C2 | 670 |
| O=C(NC1Cc2ccccc2C1)c1c(-c2ccc3c(c2)OCCO3)nc2occn12 | 750 |
| O=C(NC1Cc2ccccc2C1)c1c(-c2ccc(F)cc2F)nc2occn12 | 440 |
| O=C(NC1Cc2ccccc2C1)c1c(CCc2ccccc2)nc2occn12 | > 100000 |
| O=C(NC1Cc2ccccc2C1)c1c(-c2ccc(F)c(C(F)(F)F)c2)nc2occn12 | 18000 |

The next lines start with the values.

| EC50 [nM] | SMILES |
| --- | --- |
| 330 | O=C(N[C@H]1C[C@@H](c2ccccc2)C1)c1c(-c2ccc3ccccc3c2)nc2occn12 |
| 4400 | O=C(NOCc1ccccc1)c1c(-c2ccc3ccccc3c2)nc2occn12 |
| 380 | O=C(NC1Cc2ccccc2C1)c1c(-c2ccc(Cl)cc2)nc2occn12 |
| 830 | Cc1ccccc1CCNC(=O)c1c(-c2ccc3ccccc3c2)nc2occn12 |
| 210 | O=C(NCC1Cc2ccccc2C1)c1c(-c2ccc3ccccc3c2)nc2occn12 |
| 1100 | O=C(N[C@H]1C[C@H](c2ccccc2)C1)c1c(-c2ccc3ccccc3c2)nc2occn12 |
| 3500 | O=C(NCCc1ccc(Br)cc1)c1c(-c2ccc3ccccc3c2)nc2occn12 |
| 350 | O=C(NOCc1ccc(Cl)c(Cl)c1)c1c(-c2ccc3ccccc3c2)nc2occn12 |
| 380 | O=C(OC1Cc2ccccc2C1)c1c(-c2ccc3ccccc3c2)nc2occn12 |
| 1200 | O=C(Nc1c(-c2ccc3ccccc3c2)nc2occn12)C1Cc2ccccc2C1 |

target: T2, Nuclear receptor subfamily 1 group I member 2 (Homo sapiens, UniProt O75469); test: Activation of human PXR expressed in human HepG2 cells assessed as increase in CYP3A4 mRNA level at >1 uM incubated for 24 hrs by luciferase based analysis; type: cell-based; details: hepg2, 24 h
T2 sequence (O75469 whole entry): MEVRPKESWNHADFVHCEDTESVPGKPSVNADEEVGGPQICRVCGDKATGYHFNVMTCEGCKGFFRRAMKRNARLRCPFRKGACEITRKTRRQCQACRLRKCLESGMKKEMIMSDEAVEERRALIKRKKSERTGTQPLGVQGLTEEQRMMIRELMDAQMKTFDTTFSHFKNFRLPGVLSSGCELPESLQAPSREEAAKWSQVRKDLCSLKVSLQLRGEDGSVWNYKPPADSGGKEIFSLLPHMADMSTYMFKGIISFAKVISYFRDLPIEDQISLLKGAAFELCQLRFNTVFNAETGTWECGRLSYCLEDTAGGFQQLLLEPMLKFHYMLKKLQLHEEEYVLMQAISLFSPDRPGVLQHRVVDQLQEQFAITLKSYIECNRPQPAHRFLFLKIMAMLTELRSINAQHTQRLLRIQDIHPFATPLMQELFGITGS

| SMILES | Activity |
| --- | --- |
| Clc1ccc(-c2nc3sccn3c2/C=N/OCc2ccc(Cl)c(Cl)c2)cc1 | Active |
| c1ccc2c(c1)CC(NCc1c(-c3ccc4ccccc4c3)nc3occn13)C2 | Active |
